How the values were obtained:
[1] = literature / prior knowledge; cited from earlier work
maximal electroshock = assay: Anticonvulsant effectiveness against maximal electroshock, mice; format: in vivo, mice (Charles River strain); details: for Time of peak activity: mice, oral, maximal electroshock
Description: (§1) All tests, with the exceptions noted, were conducted on adult albino male mice (Charles River strain); the dosage consisted of the active agent suspended in 10% aqueous acacia and was administered orally unless otherwise indicated.
Anticonvulsant effectiveness of each agent against maximal electroshock was determined at the time of peak effect. The time of peak anticonvulsant activity was determined by administering dosages of various sizes to a group of animals and administering a maximal electroshock to the animals at intervals thereafter by supplying 60 ma. current through a corneal electrode for 0.2 second. […] The time of peak effect thus determined was used for all subsequent tests of anticonvulsant activity on the same active agent.

Metrazol = assay: Anticonvulsant effectiveness against convulsive dose of Metrazol, mice; format: in vivo, mice (Charles River strain); details: oral
Description: as §1
Anticonvulsant effectiveness was determined against a convulsive dose of Metrazol (106.25 mg/kg) injected subcutaneously; the criterior for effectiveness was failure to show clonic convulsive seizures. Anticonvulsant activity was determined against a lethal dose of strychnine sulfate (1.5 mg/kg) injected subcutaneously; the criterion was failure to die, even though seizures appeared.

central nervous system = assay: Hypnotic activity: loss of the righting reflex (onset of sleep); format: in vivo, mice (Charles River strain); details: any dosage less than a lethal dose for the compounds of the invention
Description: as §1

[2] = prior knowledge; cited from earlier work

CCC1(c2ccccc2)C(=O)N(COC)C(=O)N(COC)C1=O [Example 1, 1,3-dimethoxymethyl-5-ethyl-5-phenyl barbituric acid]
Hypnotic activity, known or reported [1]: without effect
Duration of anticonvulsant effect against maximal electroshock (in words) (maximal electroshock; 0.1 millimole/kg): protection continued at about the same level for more than eight hours
Onset of protection against maximal electroshock (in words) (maximal electroshock; 0.1 millimole/kg): only after two hours
Time of peak activity (maximal electroshock): 2 h
Change in ED50 to protect against maximal electroshock on repeated daily dosage (maximal electroshock; repeated daily dosage of same animals for four days): no significant change

COCN1C(=O)NC(c2ccccc2)(c2ccccc2)C1=O [Example 2, 3-methoxymethyl-5,5-diphenylhydantoin]
Onset of anticonvulsant activity (maximal electroshock) after ingestion (maximal electroshock; after ingestion): less than 0.5 hour

CCCCCCCCCCCCOCN1C(=O)N(COCCCCCCCCCCCC)C(=O)C(CC)(c2ccccc2)C1=O [Example 8, 1,3-dilauryloxymethyl-5-ethyl-5-phenyl barbituric acid]
Time of peak activity (maximal electroshock): 2 h

CCC1(CC)C(=O)N(COC)C(=O)N(COC)C1=O [Example 9, 1,3-dimethoxymethyl-5,5-diethylbarbituric acid]
Time of peak activity (Metrazol): 1 h

CCCCCCCCCCCCOCN1C(=O)N(COCCCCCCCCCCCC)C(=O)C(CC)(CC)C1=O [Example 10, 1,3-di-n-dodecyloxymethyl-5,5-diethyl barbituric acid]
Time of peak activity (in words) (Metrazol): about one hour

CCC1(c2ccccc2)C(=O)NC(=O)NC1=O [Phenobarbital, phenobarbital]
Hypnotic activity, known or reported [1]: exhibits hypnotic activity
Hypnotic activity (loss of the righting reflex) (central nervous system): did exhibit hypnotic activity

O=C1NC(=O)C(c2ccccc2)(c2ccccc2)N1 [diphenylhydantoin]
Hypnotic activity, known or reported [1]: not hypnotic
Undesirable side effects [2]: hypertrophic gingivitis, megaloblastic anemia, toxic psychoses, and hirsutism

CCC1(c2ccccc2)C(=O)NC(=O)NC1=O [phenobarbital sodium, reference compound]
Duration of anticonvulsant effect against maximal electroshock (in words) (maximal electroshock; 0.1 millimole/kg): protection began to decrease after four hours and was nearly gone by eight hours
Onset of protection against maximal electroshock (maximal electroshock; 0.1 millimole/kg): less than 0.5 hour

From patent US4339454A, “Alkoxymethyl and benzyloxymethyl phenobarbital therapeutic compositions” (priority 1978, dated 1982)
